In test [1] the target is neuraminidase (NA) of A/FujianXinluo/SWL2457/2014 (amantadine-resistant H1N1). Type of test: biochemical, influenza A virus. The settings on record: read-out: IC50, NA inhibition test, A/FujianXinluo/SWL2457/2014.
The target of test [2] is neuraminidase (NA) of A/HebeiXinhua/SWL1106/2017 (oseltamivir- and amantadine-resistant H1N1). Type of test: biochemical, influenza A virus. The settings on record: read-out: IC50, NA inhibition test, A/HebeiXinhua/SWL1106/2017.
Test [3] relates to A/HebeiXinhua/SWL1106/2017 (oseltamivir- and amantadine-resistant H1N1). The test can be described thus: microbe, parasite or virus in culture. Type of test: cell-based, influenza A virus.
Test [4] deals with wild-type and resistant IAV strains. The test can be described thus: microbe, parasite or virus in culture. Type of test: cell-based, influenza A virus. The settings on record: for IC50: Influenza A virus, read-out: IC50, protective effects for cells infected with the resistant IAV strains (CPE).
The subject of test [5] is A/FujianXinluo/SWL2457/2014 (amantadine-resistant H1N1). The test can be described thus: microbe, parasite or virus in culture. Type of test: cell-based. The settings on record: Influenza A virus, H1N1, MDCK.
Setting [6] is: Influenza A virus, H1N1, MDCK, read-out: IC50, CPE reduction, A/HebeiXinhua/SWL1106/2017, Drug administration after virus inoculation.
The mark [7] stands for this setting: Influenza A virus, H1N1, MDCK, read-out: IC50, CPE reduction, A/HebeiXinhua/SWL1106/2017, Pre-incubation of virus and drug.
Setting [8] is: Influenza A virus, H1N1, MDCK, read-out: IC50, CPE reduction, A/HebeiXinhua/SWL1106/2017, Simultaneous action of virus and drug.
[9] abbreviates: Influenza A virus, H1N1, MDCK, read-out: IC50, CPE reduction, A/HebeiXinhua/SWL1106/2017, Virus inoculation after drug administration.
[10] abbreviates: read-out: IC50, dual-oseltamivir and amantadine-resistant H1N1 CPE assay, all modes except for drug administration after viral infection.
Setting [11] is: read-out: IC50, CPE reduction, A/FujianXinluo/SWL2457/2014, Drug administration after virus inoculation.
The mark [12] stands for this setting: read-out: IC50, CPE reduction, A/FujianXinluo/SWL2457/2014, Pre-incubation of virus and drug.
The mark [13] stands for this setting: read-out: IC50, CPE reduction, A/FujianXinluo/SWL2457/2014, Simultaneous action of virus and drug.
The mark [14] stands for this setting: read-out: IC50, CPE reduction, A/FujianXinluo/SWL2457/2014, Virus inoculation after drug administration.

Each structure is given as a SMILES string. Read-outs that look alike come from different tables or passages of the source.

Consider `C=C(C(=O)O)[C@H]1CC[C@H](C)[C@@H]2CC(=O)C(C)=C2C1` (stereo in doubt) [Rupestonic acid], for which the IC50 in test [1] and in test [2] was above 100 µM throughout.

On to `O=c1cc(-c2ccc(O)cc2)oc2cc(O)cc(O)c12` [Apigenin], for which the IC50 was above 100 µM in test [3] (setting [6]); 31.6 ± 10.3 µM in test [3] (setting [7]); 35.4 ± 3.98 µM in test [3] (setting [8]); 39 ± 3.82 µM in test [3] (setting [9]); below 100 µM in test [3] (setting [10]); below 100 µM in test [4]. In addition, the IC50 stood at 28.1 ± 2.37 µM in test [5] (setting [11]), 32.1 ± 4.13 µM in test [5] (setting [12]), 40.5 ± 4 µM in test [5] (setting [13]) and 36.5 ± 5.79 µM in test [5] (setting [14]).

Regarding `O=C(/C=C/c1ccc(O)c(O)c1)O[C@@H]1C[C@](O)(C(=O)O)C[C@@H](O)[C@H]1O` [Chlorogenic acid], the IC50 in test [1] and in test [2] was above 100 µM throughout. The “inhibition of virus-induced CPE” value in test [4] was “no inhibition of virus-induced CPE”.

Consider `C=C[C@@H]1CNC(=S)O1` [Epigoitrin], for which the IC50 in test [1] and in test [2] was above 100 µM throughout.

In the case of `O=c1cc(-c2ccc(O)c(O)c2)oc2cc(O)cc(O)c12` [Luteolin], the IC50 was above 100 µM in test [3] (setting [6]); 15.2 ± 4.46 µM in test [3] (setting [7]); 20.1 ± 10.6 µM in test [3] (setting [8]); 47.2 ± 7.14 µM in test [3] (setting [9]); below 100 µM in test [3] (setting [10]); below 100 µM in test [4]. Moreover, the IC50 in test [5] (setting [11]) was 31.9 ± 1.99 µM; in test [5] (setting [12]), 1.14 ± 1.02 µM; in test [5] (setting [13]), 24.9 ± 9.62 µM; in test [5] (setting [14]), above 100 µM.

Take `O=c1cc(-c2ccc(O)c(O)c2)oc2c([C@@H]3O[C@H](CO)[C@@H](O)[C@H](O)[C@H]3O)c(O)cc(O)c12` [Orientin]: the IC50 in test [1] and in test [2] was above 100 µM each time. The “inhibition of virus-induced CPE” value in test [4] is “no inhibition of virus-induced CPE”.

Consider `CCOC(=O)C1=C[C@@H](OC(CC)CC)[C@H](NC(C)=O)[C@@H](N)C1` [Oseltamivir, oseltamivir phosphate, reference compound], for which, in test [3], the “IC50, dual-oseltamivir and amantadine-resistant H1N1 CPE assay, in the modes tested” value is reported as “no effect”. The IC50 in test [3] (setting [6]) was above 100 µM; in test [3] (setting [7]), above 100 µM; in test [3] (setting [8]), above 100 µM; in test [3] (setting [9]), above 100 µM; in test [5] (setting [11]), 86.9 ± 7.8 µM; in test [5] (setting [12]), 25.4 ± 8.32 µM. The IC50 was 25.5 ± 8.36 µM in test [5] (setting [13]) and above 100 µM in test [5] (setting [14]).

For the compound `O=c1c(O)c(-c2ccc(O)c(O)c2)oc2cc(O)cc(O)c12` [Quercetin], the IC50 in test [3] (setting [6]) is above 100 µM; in test [3] (setting [7]), 6.93 ± 4.6 µM; in test [3] (setting [8]) it was 14.6 ± 1.8 µM; in test [3] (setting [9]) it was 19.1 ± 1.95 µM; in test [3] (setting [10]) it was below 100 µM; in test [4], below 100 µM. In addition, the IC50 in test [5] (setting [11]) amounted to 20.7 ± 14.7 µM; in test [5] (setting [12]), 7.73 ± 3.04 µM; in test [5] (setting [13]), 37.1 ± 18.2 µM; in test [5] (setting [14]), 86.1 ± 13.8 µM.

Regarding `NC(=O)c1ncn([C@@H]2O[C@H](CO)[C@@H](O)[C@H]2O)n1` [Ribavirin, ribavirin, reference compound], the IC50 in test [3] (setting [6]) was 57.9 ± 10.5 µM; in test [3] (setting [7]), 29.8 ± 6.4 µM; in test [3] (setting [8]), 36.2 ± 13.7 µM; in test [3] (setting [9]), 39.9 ± 9.71 µM; in test [3] (Influenza A virus, H1N1, MDCK, read-out: IC50, dual-oseltamivir and amantadine-resistant H1N1 CPE assay, in the modes tested) it was 29.8 to 57.9 µM; in test [5] (setting [11]), 25.9 ± 14.6 µM. The IC50 is 24.6 ± 3.1 µM in test [5] (setting [12]), 26.2 ± 2.4 µM in test [5] (setting [13]) and 86.7 ± 9.8 µM in test [5] (setting [14]).
